This is an account of results in US11642332B2, “(2R,4R)-5-(5′-chloro-2′-fluorobiphenyl-4-yl)-2-hydroxy-4-[(5-methyloxazole-2-carbonyl)amino]pentanoic acid” (THERAVANCE BIOPHARMA R&D IP, LLC, priority 2015, dated 2023).

For one series, the target named is T1, NEP (Rattus norvegicus, UniProt P07861).
T1 construct: Pre-cannulated male Sprague-Dawley rats (3 per compound evaluated) between 8 and 10 weeks of age were obtained from Harlan Laboratories; from tissue; host or cells: whole animal: conscious male Sprague-Dawley rats (Harlan Laboratories)
T1 sequence (P07861 1-750): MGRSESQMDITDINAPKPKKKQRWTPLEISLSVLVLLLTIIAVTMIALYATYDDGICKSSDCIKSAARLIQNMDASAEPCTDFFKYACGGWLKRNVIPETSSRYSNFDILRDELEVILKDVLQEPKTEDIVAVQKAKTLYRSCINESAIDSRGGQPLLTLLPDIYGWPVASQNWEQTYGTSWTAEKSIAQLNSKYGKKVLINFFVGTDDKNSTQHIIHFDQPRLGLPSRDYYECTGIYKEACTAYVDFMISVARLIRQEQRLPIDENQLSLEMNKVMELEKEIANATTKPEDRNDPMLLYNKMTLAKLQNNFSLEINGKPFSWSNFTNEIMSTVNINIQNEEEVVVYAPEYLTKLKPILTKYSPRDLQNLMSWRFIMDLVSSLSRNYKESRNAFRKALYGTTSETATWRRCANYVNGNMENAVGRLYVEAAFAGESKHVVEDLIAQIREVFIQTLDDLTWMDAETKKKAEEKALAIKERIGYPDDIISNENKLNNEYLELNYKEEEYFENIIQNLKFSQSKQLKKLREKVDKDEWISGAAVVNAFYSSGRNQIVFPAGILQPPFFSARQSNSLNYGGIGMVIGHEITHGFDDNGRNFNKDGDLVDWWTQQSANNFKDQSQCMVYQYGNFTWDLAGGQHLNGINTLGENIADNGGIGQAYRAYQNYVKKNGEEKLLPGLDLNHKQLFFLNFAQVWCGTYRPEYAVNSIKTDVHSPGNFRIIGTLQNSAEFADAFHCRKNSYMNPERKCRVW
Nature of the series: PK-PD assay for NEP activity in conscious normotensive Sprague-Dawley rats (plasma cGMP after ANP bolus). Format: in vivo, male Sprague-Dawley rats. The conditions noted are these: 3 mg/kg oral. As to the method: Appropriate masses of each test compound were added into a volume of vehicle (e.g. 5% sodium bicarbonate, 5% dextrose in H2O) such that the final concentration of each compound was appropriate to be dosed at 2 mL/kg. Note that a homogenous suspension was deemed to be acceptable for oral dosing.
Pre-cannulated male Sprague-Dawley rats (3 per compound evaluated) between 8 and 10 weeks of age were obtained from Harlan Laboratories (Indianapolis, Ind.). Rats received a single oral gavage of the dosing solution. The final dose was typically in the range of 3-30 mg/kg. Serial blood samples were harvested via the cannula implanted in the jugular vein at 3 minutes, 15 minutes, 35 minutes, 45 minutes, 1 hour, 2 hours, 4 hours, 6 hours, and 24 hours post-dose. Samples were collected into microtainer tubes containing EDTA as the anticoagulant and were processed to plasma by refrigerated centrifugation. Fifteen minutes prior to the 45 minute, 2 hour, 4 hour, 6 hour, and 24 hour samples, an IV bolus (30 μg/kg) of Atrial Natriuretic Peptide (ANP) was administered. […] Since binding of ANP to its receptor leads to activation of guanylyl cyclase and subsequent production of cyclic guanosine monophosphate (cGMP), the observation of elevated levels of cGMP (>20 nM) in plasma 15 minutes after the IV administration of the ANP bolus was interpreted as evidence of ongoing neprilysin inhibition. Elevated levels plasma cGMP levels 24 hours after dosing is an indicator of the duration pharmacologic effect, analogous to plasma clearance values as indicators of pharmacokinetic persistence.
Plasma samples were extracted with 3 volumes of MeCN containing a suitable internal standard. Extracts were reconstituted into 3 volumes of water containing 1% formic acid. Plasma cGMP and test compound concentrations were quantified in plasma samples by HPLC-coupled mass spectrometric detection.

Series [1] is described as follows: Renal excretion of Compound 1 in rat. The conditions noted are these: IV 0.5 mg/kg. Format: in vivo, male Sprague Dawley rats. As to the method:
An important factor for insuring appropriate long term drug dosing and correct steady-state drug concentrations in patients is drug clearance. In general, decreased drug clearance results in higher drug concentrations and greater drug effects. In order to understand renal clearance of Compound 1, the percent of administered dose recovered in urine following a single IV dose was assessed in three animal species. Three separate studies in male Sprague Dawley rats, male beagle dogs and male cynomolgus monkeys, respectively, were conducted and the procedure and experimental results are described below.
Male Sprague Dawley rats (N=3), having body weights of 0.348 to 0.362 kg, received an IV dose of Compound 1 at 0.5 mg/kg as part of a dosing cassette. Compound 1 was dissolved in 5% NaHCO3 in D5W (5% dextrose in water, pH 7.4) and filtered through a […] polyvinyl difluoride (PVDF) syringe filter prior to administration. The rats had access to food ad libitum before and after administration of Compound 1. Urine samples were collected in metabolic cages and maintained on frozen dry ice during collection. The samples were thawed and the volume of the urine was recorded. An aliquot of the urine sample was transferred to a polypropylene storage tube, frozen and stored (−80° C.) prior to bioanalysis.
Rat urine concentrations of Compound 1 were determined by LC/MS/MS. […]

Take `Cc1cnc(C(=O)N[C@H](Cc2ccc(-c3cc(Cl)ccc3F)cc2)C[C@@H](O)C(=O)O)o1` [Compound 1, (2R,4R)-5-(5′-Chloro-2′-fluorobiphenyl-4-yl)-2-hydroxy-4-[(5-methyloxazole-2-carbonyl)amino]pentanoic Acid]: at NEP (rat plasma, 15 min after IV ANP bolus (30 μg/kg), average of three determinations), the “cGMP Concentration 24 hours After Dosing Mean” value was 112 nM. Besides, the “potentiation of cGMP 24 hr after dosing compared to Compounds C2, C3 and C4” value at NEP (rat) is “more than 2 fold”. For the same compound, in series [1], the “Amount of Compound 1 Excreted in Urine over Collection Period (0-24 hrs) Mean” value turned out to be 0.0462 µg.
